# Data reported in patent US9745355B2, “Binding-site modified lectins and uses thereof” (SmartCells, Inc., priority 2009, dated 2017).
# Test system: formaldehyde-stabilized rabbit erythrocytes
# Test: MAC assay (minimum agglutinating concentration)
# Assay type: cell-based
# Conditions: 2% v/v suspension of formaldehyde-stabilized rabbit erythrocytes
# Text: Enzymol. 83:368-373, 1982. Formaldehyde-treated rabbit erythrocytes, prepared by published procedures (Nowak et al., Biochim. Biophys. […] The MAC was defined as the lectin protein concentration (exclusive of attached chemical compounds) in the highest dilution showing visible agglutination. […] An aliquot of the formaldehyde-treated Rabbit erythrocytes was then pipetted into each well. At low lectin concentrations, there was insufficient lectin to form a network of crosslinked cells and the cells dropped to the bottom of the V-well forming what looks like a dark pin-point circle at the bottom of the plate when viewed from above. However, once the lectin concentration reached the minimum agglutination concentration (MAC), the lectin molecules began crosslinking the saccharide receptors on the erythrocyte surfaces, resulting in a network that cannot settle to the bottom of the V-well forming what looks like a large, opaque, diffuse circle when viewed from above. The lowest concentration that produces the large diffuse circle is the MAC value for a particular formulation.
substance,measurement,value
concanavalin A [Umodified],MAC,<1 µg/mL
